# Measured values reported in article PMC8446315, “Synthesis, biological evaluation, molecular modeling, and structural analysis of new pyrazole and pyrazolone derivatives as N‐formyl peptide receptors agonists” (Chemical Biology & Drug Design, 2021).
# Read-outs that look alike come from different tables or passages of the source.
# Assays:
# human neutrophils (hPMN) = experiment: Ca2+ mobilization in human neutrophils (hPMN); assay type: cell-based; details: for efficacy (%) hPMN: % of the response induced by 5 nM fMLF; for EC50: Homo sapiens, Neutrophil
# Description: Blood was collected from healthy donors in accordance with a protocol approved by the Institutional Review Board at Montana State University. Neutrophils were purified from the blood using dextran sedimentation, followed by Histopaque 1077 gradient separation and hypotonic lysis of red blood cells. Isolated neutrophils were washed twice and resuspended in HBSS^‐. Neutrophil preparations were routinely >95% pure, as determined by light microscopy, and >98% viable, as determined by trypan blue exclusion.
# Changes in intracellular Ca^2+ were measured with a FlexStation II scanning fluorometer (Molecular Devices). The cells, suspended in Hank's balanced salt solution without Ca^2+ and Mg^2+ but with 10 mM HEPES (HBSS^‐), were loaded with 1.25 μg/ml Fluo‐4 a.m. dye and incubated for 30 min in the dark at 37°C. After dye loading, the cells were washed with HBSS^‐ containing 10 mM HEPES, resuspended in HBSS^+ containing Ca^2+, Mg^2+, and 10 mM HEPES (HBSS^+), and aliquoted into the wells of flat‐bottom, half‐area‐well black microtiter plates (2 × 10^5 cells/well). For evaluation of direct agonist activity, compounds of interest were added from a source plate containing dilutions of test compounds in HBSS^+, and changes in fluorescence were monitored (λex = 485 nm, λem = 538 nm) every 5 s for 240 s at room temperature after automated addition of compounds. Maximum change in fluorescence during the first 3 min, expressed in arbitrary units over baseline, was used to determine a response. […] Curve fitting (5–6 points) and calculation of median effective […] were performed by nonlinear regression analysis of the dose–response curves generated using Prism 7 (GraphPad Software, Inc.).
# FPR2 = molecular target: T1, FPR2 (Homo sapiens, UniProt P25090); experiment: Ca2+ mobilization in FPR2-transfected HL60 cells; assay type: cell-based; details: for efficacy (%) HL60‐FPR2: % of the response induced by 5 nM WKYMVm
# T1 construct: expressed in transfected cells
# T1 sequence (P25090 1-351): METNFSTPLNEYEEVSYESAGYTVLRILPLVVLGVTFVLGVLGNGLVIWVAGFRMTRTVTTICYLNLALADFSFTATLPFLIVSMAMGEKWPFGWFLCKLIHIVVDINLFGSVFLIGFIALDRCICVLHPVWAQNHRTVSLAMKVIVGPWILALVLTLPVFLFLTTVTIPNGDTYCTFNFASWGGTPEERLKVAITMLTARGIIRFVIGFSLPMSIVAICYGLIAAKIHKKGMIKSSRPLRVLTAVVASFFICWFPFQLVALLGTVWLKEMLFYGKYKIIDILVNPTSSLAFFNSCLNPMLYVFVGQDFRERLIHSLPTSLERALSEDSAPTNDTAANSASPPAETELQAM
# Description: (§1) Although stable cell lines are cultured under G418 selection pressure, G418 may affect some assays, so it was removed in the last round of culture before assays were performed.
# (§2) Changes in intracellular Ca^2+ were measured with a FlexStation II scanning fluorometer (Molecular Devices). The cells, suspended in Hank's balanced salt solution without Ca^2+ and Mg^2+ but with 10 mM HEPES (HBSS^‐), were loaded with 1.25 μg/ml Fluo‐4 a.m. dye and incubated for 30 min in the dark at 37°C. After dye loading, the cells were washed with HBSS^‐ containing 10 mM HEPES, resuspended in HBSS^+ containing Ca^2+, Mg^2+, and 10 mM HEPES (HBSS^+), and aliquoted into the wells of flat‐bottom, half‐area‐well black microtiter plates (2 × 10^5 cells/well). For evaluation of direct agonist activity, compounds of interest were added from a source plate containing dilutions of test compounds in HBSS^+, and changes in fluorescence were monitored (λex = 485 nm, λem = 538 nm) every 5 s for 240 s at room temperature after automated addition of compounds. Maximum change in fluorescence during the first 3 min, expressed in arbitrary units over baseline, was used to determine a response. […] Curve fitting (5–6 points) and calculation of median effective inhibitory concentrations (IC50) were performed by nonlinear regression analysis of the dose–response curves generated using Prism 7 (GraphPad Software, Inc.).
# FPR1 = molecular target: T2, FPR1 (Homo sapiens, UniProt P21462); experiment: Ca2+ mobilization in FPR1-transfected HL60 cells; assay type: cell-based; details: for efficacy (%) HL60‐FPR1: % of the response induced by 5 nM fMLF
# T2 construct: expressed in transfected cells
# T2 sequence (P21462 1-350): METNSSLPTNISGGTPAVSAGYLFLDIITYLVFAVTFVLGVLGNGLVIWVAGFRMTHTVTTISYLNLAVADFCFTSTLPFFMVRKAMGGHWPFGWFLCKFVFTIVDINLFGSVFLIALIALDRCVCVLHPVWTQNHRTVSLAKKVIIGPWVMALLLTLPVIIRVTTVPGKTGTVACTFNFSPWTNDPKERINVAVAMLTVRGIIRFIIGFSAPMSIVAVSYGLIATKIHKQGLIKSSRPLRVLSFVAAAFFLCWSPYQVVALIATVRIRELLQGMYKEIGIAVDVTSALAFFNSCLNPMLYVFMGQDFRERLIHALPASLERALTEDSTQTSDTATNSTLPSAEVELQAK
# Description: as §1, §2
# [1] = system: animal models of rheumatoid arthritis; set-up: method as in Burli et al., 2006; Odobasic et al., 2018; details: ref Burli et al., 2006; Odobasic et al., 2018; cited from earlier work
# FPR3 = details: Figure 2, ref Vergelli et al., cited from earlier work
# [2] = system: rat model of rheumatoid arthritis; set-up: method as in Crocetti et al., 2020; details: ref Crocetti et al., 2020; cited from earlier work
# healthy human subject = system: healthy human subject; set-up: method as in Lind et al., 2019; Stalder et al., 2017; details: phase I clinical trial, ref Lind et al., 2019, Stalder et al., 2017; cited from earlier work
# [3] = Ca2+ mobilization, mean of three independent experiments, N.A. = no activity (limits efficacy <20% and EC50 < 50 µM)
melting point,SMILES,efficacy (%) hPMN (human neutrophils (hPMN)) [%],EC50 (human neutrophils (hPMN)) [µM],EC50 (FPR2) [µM],efficacy (%) HL60‐FPR2 (FPR2) [%],efficacy (%) HL60‐FPR1 (FPR1) [%],also measured
163 to 166 °C,"COc1cccc(Nc2cn(-c3ccccc3)n(CC(=O)Nc3ccc(Br)cc3)c2=O)c1 [Compound 10, N‐(4‐Bromophenyl)‐2‐[4‐(3‐methoxyphenylamino)‐5‐oxo‐2‐phenyl‐2,5‐dihydropyrazol‐1‐yl]acetamide]",–,–,–,–,–,–
–,CC(C)c1c(NC(=O)Nc2ccc(Cl)cc2)c(=O)n(-c2ccccc2)n1C [Cpd43],–,–,–,–,–,profile in animal models of rheumatoid arthritis [1]: excellent profile
136 to 139 °C,"COc1ccc(Nc2c(C#N)cnn2CC(=O)Nc2ccc(Br)cc2)cc1 [Compound 4b, N‐(4‐Bromophenyl)‐2‐[4‐cyano‐5‐(4‐methoxyphenylamino)pyrazol‐1‐yl]acetamide]",–,–,–,–,–,–
–,"COc1cccc(Nc2c(C(C)=O)c(C)nn(CC(=O)Nc3ccc(Br)cc3)c2=O)c1 [EC10, reference compound]",150,0.036 ± 0.007,–,60,185,EC50 (FPR3; 2016): 0.21 µM; EC50 (FPR2; [3]): 0.17 ± 0.038 µM; anti‐inflammatory activity in vivo [2]: anti‐inflammatory activity; EC50 (FPR1; [3]): 0.045 ± 0.016 µM
136 to 139 °C,"O=C(Cn1c(=O)ccn1-c1ccccc1)Nc1ccc(Br)cc1 [Compound 9a, N‐(4‐Bromophenyl)‐2‐(5‐oxo‐2‐phenyl‐2,5‐dihydropyrazol‐1‐yl)acetamide]",–,–,–,–,–,–
> 300 °C (dec.),"COc1cccc(Nc2c(C)c(-c3ccccc3)nn2CC(=O)Nc2ccc(Br)cc2)c1 [Compound 4c, N‐(4‐Bromophenyl)‐2‐[5‐(3‐methoxyphenylamino)‐4‐methyl‐3‐phenylpyrazol‐1‐yl]acetamide]",–,–,–,–,–,–
–,COc1cccc(-c2cc(C#N)c(=O)n(CC(=O)Nc3ccc(Br)cc3)c2C)c1 [Compound 2a],–,–,–,–,–,anti‐inflammatory activity in vivo [2]: anti‐inflammatory activity
212 to 214 °C,"COc1ccc(Nc2c(C)c(-c3ccccc3)nn2CC(=O)Nc2ccc(Br)cc2)cc1 [Compound 4d, N‐(4‐Bromophenyl)‐2‐[5‐(4‐methoxyphenylamino)‐4‐methyl‐3‐phenylpyrazol‐1‐yl]acetamide]",–,–,–,–,–,–
–,"CCCCCCn1c(=O)c(-c2cccc(OC)c2)cn1-c1ccccc1 [Compound 13f, Hexyl‐4‐(3‐methoxyphenyl)‐1‐phenyl‐1,2‐dihydropyrazol‐3‐one]",55,13.8 ± 4.2,10.5 ± 3.5,90,35,EC50 (FPR1): 20.2 ± 5.4 µM
–,"Cc1cc(OCC(=O)Nc2ccc(Br)cc2)n[nH]1 [Compound 15, N‐(4‐bromophenyl)‐2‐[(5‐methyl‐1H‐pyrazol‐3‐yl)oxy]acetamide]",55,18.6 ± 4.7,25.9 ± 6.4,60,60,EC50 (FPR1): 9.8 ± 2.7 µM
–,"COc1cccc(Cc2c(C)c(C)nn(CC(=O)Nc3ccc(Br)cc3)c2=O)c1 [EC3, reference compound]",150,–,–,80,85,EC50 (FPR3; 2017): 0.04 µM; EC50 (FPR2; [3]): 0.043 ± 0.0016 µM; anti‐inflammatory activity in vivo [2]: anti‐inflammatory activity; EC50 (FPR1; [3]): 0.019 ± 0.005 µM
–,"COc1cccc(-c2nn(CC(=O)Nc3ccc(Br)cc3)c(C)c2C#N)c1 [Compound 7a, N‐(4‐Bromophenyl)‐2‐[4‐cyano‐3‐(3‐methoxyphenyl)‐5‐methylpyrazol‐1‐yl]acetamide]",80,6.5 ± 1.6,6.1 ± 2.2,75,75,"preference for FPR2 (FPR2; FPR2 over FPR1, from EC50 values): threefold; EC50 (FPR1): 18.4 ± 4.3 µM"
–,Cc1cccc(-c2oc(C)nc2C(=O)Nc2cnn(Cc3nc(C(C)(F)F)co3)n2)c1 [Act‐389949],–,–,–,–,–,safety and tolerability (healthy human subject): safe and well tolerated

SMILES,melting point,efficacy (%) hPMN (human neutrophils (hPMN)) [%],EC50 (human neutrophils (hPMN)) [µM],EC50 (FPR2) [µM],efficacy (%) HL60‐FPR2 (FPR2) [%],efficacy (%) HL60‐FPR1 (FPR1) [%],also measured
"COc1cccc(Nc2ccnn2CC(=O)Nc2ccc(Br)cc2)c1 [Compound 4e, N‐(4‐Bromophenyl)‐2‐[5‐(3‐methoxyphenylamino)‐pyrazol‐1‐yl]acetamide]",140 to 143 °C,75,8.2 ± 2.6,23.4 ± 5.3,60,85,EC50 (FPR1): 13.2 ± 2.6 µM
"Nc1cn(-c2ccccc2)n(CC(=O)Nc2ccc(Br)cc2)c1=O [Compound 9b, 2‐(4‐Amino‐5‐oxo‐2‐phenyl‐2,5‐dihydropyrazol‐1‐yl)‐N‐(4‐bromophenyl)acetamide]",160 to 163 °C,–,–,23.1 ± 6.3,50,–,"EC50 (µM) hPMN (human neutrophils (hPMN); Ca2+ mobilization in human neutrophils, mean of three independent experiments, N.A. = no activity (limits efficacy <20% and EC50 < 50 µM)): inactive"
